{"source": "paper PMC9636434", "about": "“Discovery of small molecule agonists of the Relaxin Family Peptide Receptor 2” (Communications Biology, 2022)", "key": {"vertebrae and femur": {"tested_on": "vertebrae and femur", "test": "Biomechanical testing of L3 vertebrae (compression) and femur (3-point bending)", "assay_type": "in vivo, mouse", "settings": "for Elastic Modulus (MPa) / Ultimate Stress (MPa) / Yield Stress (MPa): individual mice", "from_the_text": "Previously it was established that C57BL/6 J female mice start losing trabecular bone mass naturally after they reach 8 weeks of age, which provides a model to study the anabolic effects of compound on bone metabolism. The use of females provides a test model with low if any basal INSL3 exposure. […] As previously reported, INSL3 induces an increase in Alp in primary human osteoblasts[20] (Supplementary Fig. 11b) while 6641 induces an increase in Osteocalcin expression (Fig. 5b). After micro-CT scanning, these same lumbar spine and femur from 6641- and vehicle-treated mice were utilized for biomechanical testing. The femurs were tested in a 3-point bending test and the L3 vertebrae in a compression test using an ElectroForce 5500 Test Instrument (TA Instruments, New Castle, DE) with a ramp rate of 0.05 mm/sec and support span of 8.1 mm, running […] software version 8.2. Time, force, and displacement were collected for use in the analysis of mechanical and material properties using custom MATLAB codes (MathWorks, Natick, MA). The Moment of Inertia (MoI) was calculated based on the micro-CT measurements. […] Biomechanical material properties in a vertebrae and b femur of vehicle- and compound- treated female mice. 12 and 15 mice were used in the vehicle and compound groups respectively. p = ns (Student's t-test). (1 picture or pasted object on this page, not shown here)"}, "human LHCGR": {"biological_target": "human LHCGR (Homo sapiens, UniProt P22888)", "sequence (P22888 27-699)": "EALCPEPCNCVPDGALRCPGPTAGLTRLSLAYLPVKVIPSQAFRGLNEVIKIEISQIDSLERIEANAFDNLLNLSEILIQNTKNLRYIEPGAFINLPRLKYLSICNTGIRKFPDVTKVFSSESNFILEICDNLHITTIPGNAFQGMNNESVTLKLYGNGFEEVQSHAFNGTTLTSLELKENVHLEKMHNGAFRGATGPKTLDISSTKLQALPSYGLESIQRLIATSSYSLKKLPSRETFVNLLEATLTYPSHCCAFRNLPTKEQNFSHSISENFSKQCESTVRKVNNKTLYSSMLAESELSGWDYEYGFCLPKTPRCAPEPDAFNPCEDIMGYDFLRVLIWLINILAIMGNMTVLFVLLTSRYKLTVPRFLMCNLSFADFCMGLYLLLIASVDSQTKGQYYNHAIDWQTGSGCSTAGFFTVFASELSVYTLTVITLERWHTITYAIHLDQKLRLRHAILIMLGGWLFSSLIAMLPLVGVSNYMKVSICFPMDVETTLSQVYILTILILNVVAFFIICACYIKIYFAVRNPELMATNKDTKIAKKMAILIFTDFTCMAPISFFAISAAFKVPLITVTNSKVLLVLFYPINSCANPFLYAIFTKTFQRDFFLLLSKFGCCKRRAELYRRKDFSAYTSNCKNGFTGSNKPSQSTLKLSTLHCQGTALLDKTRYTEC", "test": "HitHunter cAMP XS+ assay, cAMP Hunter cell line LHCGR", "assay_type": "cell-based", "settings": "for RLU: replicates (1),(2)", "from_the_text": "Results are reported as raw RLU values and represent the\nmean ± SEM of 2 technical replicates."}, "RXFP2": {"biological_target": "RXFP2 (Homo sapiens, UniProt Q8WXD0)", "sequence (Q8WXD0 whole entry)": "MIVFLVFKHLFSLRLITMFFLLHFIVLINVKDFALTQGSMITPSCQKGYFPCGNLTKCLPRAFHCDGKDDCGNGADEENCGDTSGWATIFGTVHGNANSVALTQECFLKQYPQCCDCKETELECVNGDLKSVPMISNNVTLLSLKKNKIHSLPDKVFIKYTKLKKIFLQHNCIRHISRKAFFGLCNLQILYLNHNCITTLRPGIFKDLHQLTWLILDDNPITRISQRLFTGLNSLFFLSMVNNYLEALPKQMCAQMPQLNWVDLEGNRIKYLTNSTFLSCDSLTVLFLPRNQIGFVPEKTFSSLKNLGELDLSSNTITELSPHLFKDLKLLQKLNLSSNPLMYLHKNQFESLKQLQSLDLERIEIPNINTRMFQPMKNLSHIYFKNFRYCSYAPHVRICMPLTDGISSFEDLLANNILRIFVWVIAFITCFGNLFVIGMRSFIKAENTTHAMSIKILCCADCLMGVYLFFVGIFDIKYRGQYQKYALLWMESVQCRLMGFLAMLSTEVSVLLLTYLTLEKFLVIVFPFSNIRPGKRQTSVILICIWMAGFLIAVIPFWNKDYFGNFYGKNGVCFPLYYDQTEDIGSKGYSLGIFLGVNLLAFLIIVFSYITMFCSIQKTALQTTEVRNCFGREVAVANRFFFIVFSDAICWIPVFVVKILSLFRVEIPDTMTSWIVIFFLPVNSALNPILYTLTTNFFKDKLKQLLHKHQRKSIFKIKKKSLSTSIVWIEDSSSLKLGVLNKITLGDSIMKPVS", "test": "INSL3 allosteric modulation experiment, HTRF cAMP, co-treatment 6641 and INSL3", "assay_type": "cell-based", "parameters": "FLAG (N); expressed in transfected cells", "settings": "for % Eff: 6641 alone, replicates (1)-(3)", "from_the_text": "We have further analyzed the effect of simultaneous activation of human RXFP2 with 6641 and INSL3 to evaluate possible allosteric modulation of INSL3 cAMP signaling by the small molecule (Supplementary Fig. 8).\nThe HTRF Gs dynamic cAMP assay kit (CisBio, Bedford, MA) was used to measure intracellular cAMP accumulation in HEK293T cells (ATCC, Manassas, VA)[56]. […] The cell stock was verified mycoplasma free and authenticated by ATCC. Transient transfection was accomplished by treating cells in a 6-well plate with a mixture of 2 μg plasmid and 6 μL Lipofectamine 2000 (Invitrogen, Waltham, MA) per manufacturer’s protocol and incubating overnight. For cAMP measurement in 96-well format, HEK293T cells stably transfected with human RXFP2 (HEK-RXFP2), human RXFP1 (HEK-RXFP1), mouse Rxfp1 (HEK-Rxfp1) or transiently transfected with human RXFP1-RXFP2 chimeric receptors were seeded between 7500 and 30,000 cells per well, depending on cell line responsiveness, in serum-free DMEM medium and incubated overnight at 37 °C, 5% CO2. After 18 h, cells were treated with a titration of compound, 2 μM forskolin, or DMSO vehicle. Control wells were also treated with a titration of INSL3 (Phoenix Pharmaceuticals, Burlingame, CA) or human recombinant relaxin 2 (Peprotech, Cranbury, NJ). For the RXFP2 antagonist experiment, cells were co-treated with 0.28 μM compound or 30 nM INSL3 and a titration of the INSL3 B dimer antagonist[38],[39]. For the INSL3 allosteric modulation experiment, cells were co-treated with 0.025, 0.0025, or 0.00025 μM of compound and a titration of INSL3. Cells were incubated for 1 h at 37 °C, 5% CO2, and then kit cAMP-d2 and anti-cAMP antibody were added per manufacturer protocol. Plates were incubated for 1 h at room temperature and the signal was read on a CLARIOstar plate reader (BMG Labtech, Ortenberg, Germany) at 665 and 620 nm emission wavelengths.\ncAMP response in HEK293T cells expressing human RXFP2 was measured by HTRF\nassay after treatment with a titration of INSL3 and suboptimal concentrations of 6641.\nResults are expressed as mean ± SEM of 3 independent experiments.\n(1 picture or pasted object on this page, not shown here)"}, "[1]": {"tested_on": "human aortic vascular smooth muscle cells (HAVSMC)", "test": "CellTiter-Glo cytotoxicity assay in HAVSMC cells", "assay_type": "cell-based", "settings": "experiments (1)-(3)", "from_the_text": "Fig. 4 RXFP2 agonists induce mineralization of primary human osteoblasts and are non-cytotoxic. a Mineral hydroxyapatite fluorescent quantification after 14-day treatment in HCO cells. Results were normalized to control DMSO as 100% mineralization. b HCO and c HAVSMC toxicity after 24-h treatment with RXFP2 agonists, normalized to DMSO treatment as 0% toxicity. Results are expressed as mean ± SEM of 3 independent experiments. *p < 0.05, *** p < 0.001 vs. DMSO using One-way ANOVA.\nCell viability studies were undertaken to identify potential cytotoxic effects of the RXFP2 agonists. HCO cells and human aortic vascular smooth muscle cells (HAVSMC) were treated for 24 h. […] At 8.3 µM and below, no toxicity was found in HCO cells and toxicity was below 20% in HAVSMC cells for all three compounds (Fig. 4b, c).\nThe ATP CellTiter-Glo Luminescent Cell Viability Assay (Promega, Madison, WI) was used to measure cytotoxicity induced by the compounds in HCO cells and human aortic vascular smooth muscle cells (HAVSMC) (ATCC, Manassas, VA). HCO and HAVSMC cells were seeded in 96-well plates at 3000 and 7000 cells per well respectively. Cells were incubated overnight, treated with compound or DMSO vehicle and incubated for 24 h at 37 °C, 5% CO2. […] Plates were shaken for 2 min, incubated at room temperature for 10 min and the luminescent signal was read on a CLARIOstar plate reader."}, "[2]": {"settings": "Supplementary Figure 15a, L3 vertebrae compression"}, "[3]": {"settings": "Supplementary Figure 15b, femur 3-point bending"}}, "note": "Values joined by “and” are separate entries in the source; they are usually repeats but may differ in a detail not shown here. Equal entries are not always repeated.", "data": [{"smiles": "O=C1Nc2ccc(-c3cc(C(F)(F)F)cc(C(F)(F)F)c3)cc2C(=O)N2CCN(C(=O)COc3ccc(OC(F)(F)F)cc3I)C[C@@H]12", "note": "[compound 6641]", "values": [{"measurement": "biomechanical properties of vertebrae and femur", "setting": "vertebrae and femur; 10 mg/kg PO 3 times per week, 8 weeks", "value": "no changes"}, {"measurement": "Elastic Modulus (MPa)", "setting": "vertebrae and femur; [2]", "value": "153.265 MPa and 132.946 MPa and 187.209 MPa and 254.765 MPa and 121.079 MPa and 235.799 MPa and 193.606 MPa and 184.897 MPa and 170.559 MPa and 170.73 MPa and 159.611 MPa and 225.093 MPa and 77.447 MPa and 155.764 MPa and 159.911 MPa"}, {"measurement": "Ultimate Stress (MPa)", "setting": "vertebrae and femur; [2]", "value": "14.1661 MPa and 20.1523 MPa and 16.2174 MPa and 22.2452 MPa and 21.0001 MPa and 22.5708 MPa and 23.224 MPa and 14.0488 MPa and 8.99 MPa and 16.5244 MPa and 23.9179 MPa and 31.2724 MPa and 15.8471 MPa and 17.3612 MPa and 20.3053 MPa"}, {"measurement": "Yield Stress (MPa)", "setting": "vertebrae and femur; [2]", "value": "13.761 MPa and 16.4161 MPa and 15.4319 MPa and 20.1436 MPa and 20.5667 MPa and 22.2148 MPa and 17.2035 MPa and 13.8315 MPa and 7.519 MPa and 16.2742 MPa and 23.3124 MPa and 30.0585 MPa and 14.6642 MPa and 10.8847 MPa and 20.2754 MPa"}, {"measurement": "Elastic Modulus (MPa)", "setting": "vertebrae and femur; [3]", "value": "7398.92 MPa and 8063.16 MPa and 7172.9 MPa and 5490.74 MPa and 6726.89 MPa and 7530 MPa and 6047.64 MPa and 5378.62 MPa and 5004.38 MPa and 6512.17 MPa and 8227.03 MPa and 6891.88 MPa and 7622.53 MPa and 6100.62 MPa and 7209.2 MPa"}, {"measurement": "Ultimate Stress (MPa)", "setting": "vertebrae and femur; [3]", "value": "125.43 MPa and 114.53 MPa and 121.49 MPa and 120.23 MPa and 113.48 MPa and 123.54 MPa and 148.86 MPa and 112.5 MPa and 116.79 MPa and 97.01 MPa and 135.98 MPa and 139.67 MPa and 122.96 MPa and 105.85 MPa and 123.21 MPa"}, {"measurement": "Yield Stress (MPa)", "setting": "vertebrae and femur; [3]", "value": "75.91 MPa and 60.78 MPa and 69.18 MPa and 62.13 MPa and 66.41 MPa and 57.07 MPa and 119.15 MPa and 57.74 MPa and 99.95 MPa and 60.92 MPa and 107.1 MPa and 79.8 MPa and 112.52 MPa and 62.12 MPa and 77.2 MPa"}, {"measurement": "cAMP response through LHCGR", "setting": "human LHCGR; Hit Hunter cAMP assay", "value": "did not result in an increase of cAMP level"}, {"measurement": "RLU", "setting": "human LHCGR; Log [M] -4.70", "value": "1280 RLU and 1080 RLU"}, {"measurement": "RLU", "setting": "human LHCGR; Log [M] -5.18", "value": 1000, "unit": "RLU"}, {"measurement": "RLU", "setting": "human LHCGR; Log [M] -5.65", "value": "1080 RLU and 1000 RLU"}, {"measurement": "RLU", "setting": "human LHCGR; Log [M] -6.13", "value": 1080, "unit": "RLU"}, {"measurement": "RLU", "setting": "human LHCGR; Log [M] -6.61", "value": 1040, "unit": "RLU"}, {"measurement": "RLU", "setting": "human LHCGR; Log [M] -7.08", "value": "1200 RLU and 920 RLU"}, {"measurement": "RLU", "setting": "human LHCGR; Log [M] -7.56", "value": 1000, "unit": "RLU"}, {"measurement": "RLU", "setting": "human LHCGR; Log [M] -8.04", "value": "960 RLU and 680 RLU"}, {"measurement": "RLU", "setting": "human LHCGR; Log [M] -8.52", "value": 1040, "unit": "RLU"}, {"measurement": "RLU", "setting": "human LHCGR; Log [M] -8.99", "value": "960 RLU and 1040 RLU"}, {"measurement": "effect of co-stimulation with INSL3 on cAMP production", "setting": "RXFP2; 0.025, 0.0025 or 0.00025 μM compound and titration of INSL3", "value": "simple additive effect"}, {"measurement": "% Eff", "setting": "RXFP2; Log [M] -4.60", "value": "75.1113% and 97.1676% and 94.1213%"}, {"measurement": "% Eff", "setting": "RXFP2; Log [M] -5.60", "value": "93.2943% and 114.987% and 113.554%"}, {"measurement": "% Eff", "setting": "RXFP2; Log [M] -6.60", "value": "74.6686% and 120.861% and 97.4942%"}, {"measurement": "% Eff", "setting": "RXFP2; Log [M] -7.60", "value": "50.914% and 51.0623% and 52.8348%"}, {"measurement": "% Eff", "setting": "RXFP2; Log [M] -8.60", "value": "8.681% and 8.081% and 10.3062%"}, {"measurement": "% Eff", "setting": "RXFP2; Log [M] -9.60", "value": "0.2079% and -1.122% and -1.231%"}, {"measurement": "% Tox", "setting": "[1]; Log [M] -5.08, 24 h", "value": "15.51% and 24.11% and 15.33%"}, {"measurement": "% Tox", "setting": "[1]; Log [M] -5.56, 24 h", "value": "15.84% and 5.85%"}]}]}
